# According to US8486939B2, “Pyrimidinyl and 1,3,5-triazinyl benzimidazoles and their use in cancer therapy” (Pathway Therapeutics Inc., priority 2009, dated 2013):
# Counter-ions that a name gives are not always drawn.
# Key:
# p110δ/p85 = p110δ/p85 (Homo sapiens, UniProt O00329); assay: Inhibition of isolated enzyme (lipid kinase assay, [γ33P]ATP, TLC); assay type: biochemical; conditions: recombinant enzyme, 100 μM ATP, 1 hr room temperature, average of two experiments
# Method: (§1) Compounds were evaluated for their ability to inhibit Class I PI 3-kinase enzymes p110δ/p85, p110α/p85, and p110β/p85. Reaction mixtures comprising 0.1 μg of a recombinant enzyme, 10 μg of L-α-phosphatidylinositol, and 2× Lipid Kinase Buffer (40 mM Tris-HCl, pH 7.4, 200 mM NaCl, 1 mM EDTA), which contains either DMSO only as a control or the test compound in DMSO (the final DMSO concentration is 1%), were activated by the addition of an ATP mix (5 mM MgCl2, 100 μM ATP, and 0.1 μL [γ^33P]ATP). Reactions were incubated at room temperature for 1 hr, and then stopped by the addition of 1M HCl. The lipids were then extracted using a two step procedure. Firstly, 200 μL of chloroform/methanol (1:1) was added, the biphasic reactions mixed and centrifuged briefly, and the inorganic phase was removed and discarded. Following this, 80 μL of methanol:HCl (1:1) was added and the same procedure followed. The organic phase (70 μL) was then transferred to a clean 1.6 mL tube and the reactions were dried using a Speedvac, with no heating, for […]. The reactions were spotted onto TLC plates (Merck Ltd) and developed for 1 hr in propanol-1:2 M acetic acid (13:7). The TLC plates were then dried at room temperature and quantified using a phosphorimager (StormImager, Amersham). Nine compound concentrations were used for each test compound to determine its IC50 value. Each experiment was performed twice and the average IC50 value is used herein.
# p110α/p85 = p110α/p85 (Homo sapiens, UniProt P42336); assay: as above; assay type: biochemical; conditions: recombinant enzyme, 100 μM ATP, 1 hr room temperature, average of two experiments
# Method: as §1
# Chain of p110δ/p85 (O00329 whole entry, species assumed): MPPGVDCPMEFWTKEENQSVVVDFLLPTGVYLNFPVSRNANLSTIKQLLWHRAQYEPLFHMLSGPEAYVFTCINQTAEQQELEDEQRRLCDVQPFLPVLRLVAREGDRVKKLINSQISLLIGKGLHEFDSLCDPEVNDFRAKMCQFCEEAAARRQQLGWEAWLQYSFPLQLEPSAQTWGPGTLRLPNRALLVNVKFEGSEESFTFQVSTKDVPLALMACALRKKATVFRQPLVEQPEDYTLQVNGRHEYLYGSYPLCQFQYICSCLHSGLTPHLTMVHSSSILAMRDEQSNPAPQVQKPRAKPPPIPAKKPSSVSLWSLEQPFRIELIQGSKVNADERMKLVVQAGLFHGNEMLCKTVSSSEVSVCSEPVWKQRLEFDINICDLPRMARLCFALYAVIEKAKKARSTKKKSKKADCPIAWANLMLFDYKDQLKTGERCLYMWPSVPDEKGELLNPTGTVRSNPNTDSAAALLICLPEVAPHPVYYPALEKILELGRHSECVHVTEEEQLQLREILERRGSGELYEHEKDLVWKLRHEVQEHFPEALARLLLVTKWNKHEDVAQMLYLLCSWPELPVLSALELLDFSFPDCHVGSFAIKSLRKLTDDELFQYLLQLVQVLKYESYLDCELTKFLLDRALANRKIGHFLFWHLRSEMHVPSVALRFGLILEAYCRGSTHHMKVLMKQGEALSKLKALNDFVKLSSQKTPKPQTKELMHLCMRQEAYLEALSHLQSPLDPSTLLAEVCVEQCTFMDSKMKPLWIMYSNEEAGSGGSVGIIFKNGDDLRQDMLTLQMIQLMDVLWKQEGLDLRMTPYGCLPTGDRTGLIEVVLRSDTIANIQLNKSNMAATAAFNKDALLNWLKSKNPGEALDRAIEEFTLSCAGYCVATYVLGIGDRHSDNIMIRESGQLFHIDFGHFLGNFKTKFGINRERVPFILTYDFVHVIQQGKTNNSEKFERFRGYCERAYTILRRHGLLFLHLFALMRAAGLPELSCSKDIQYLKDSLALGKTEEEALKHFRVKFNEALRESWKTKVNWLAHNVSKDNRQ
# Chain of p110δ/p85 (P27986 whole entry partner, species assumed): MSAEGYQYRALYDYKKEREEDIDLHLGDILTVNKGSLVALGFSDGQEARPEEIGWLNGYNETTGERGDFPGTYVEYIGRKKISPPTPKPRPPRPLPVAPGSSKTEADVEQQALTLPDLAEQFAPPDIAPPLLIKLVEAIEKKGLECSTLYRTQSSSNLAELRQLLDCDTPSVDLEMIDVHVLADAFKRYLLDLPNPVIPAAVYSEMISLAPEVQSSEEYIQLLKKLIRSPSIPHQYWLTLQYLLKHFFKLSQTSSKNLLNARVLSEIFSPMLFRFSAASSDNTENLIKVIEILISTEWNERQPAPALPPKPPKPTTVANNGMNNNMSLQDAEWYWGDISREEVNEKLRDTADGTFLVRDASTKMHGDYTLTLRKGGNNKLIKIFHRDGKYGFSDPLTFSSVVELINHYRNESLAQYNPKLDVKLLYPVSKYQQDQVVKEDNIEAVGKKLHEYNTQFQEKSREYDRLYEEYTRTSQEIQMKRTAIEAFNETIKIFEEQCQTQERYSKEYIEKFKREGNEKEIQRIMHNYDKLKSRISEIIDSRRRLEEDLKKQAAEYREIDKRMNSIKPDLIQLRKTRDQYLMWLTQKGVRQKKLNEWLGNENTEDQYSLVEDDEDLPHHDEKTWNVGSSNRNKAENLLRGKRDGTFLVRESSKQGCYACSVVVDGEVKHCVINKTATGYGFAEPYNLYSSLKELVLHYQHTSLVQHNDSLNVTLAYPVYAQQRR
# Chain of p110α/p85 (P42336 whole entry): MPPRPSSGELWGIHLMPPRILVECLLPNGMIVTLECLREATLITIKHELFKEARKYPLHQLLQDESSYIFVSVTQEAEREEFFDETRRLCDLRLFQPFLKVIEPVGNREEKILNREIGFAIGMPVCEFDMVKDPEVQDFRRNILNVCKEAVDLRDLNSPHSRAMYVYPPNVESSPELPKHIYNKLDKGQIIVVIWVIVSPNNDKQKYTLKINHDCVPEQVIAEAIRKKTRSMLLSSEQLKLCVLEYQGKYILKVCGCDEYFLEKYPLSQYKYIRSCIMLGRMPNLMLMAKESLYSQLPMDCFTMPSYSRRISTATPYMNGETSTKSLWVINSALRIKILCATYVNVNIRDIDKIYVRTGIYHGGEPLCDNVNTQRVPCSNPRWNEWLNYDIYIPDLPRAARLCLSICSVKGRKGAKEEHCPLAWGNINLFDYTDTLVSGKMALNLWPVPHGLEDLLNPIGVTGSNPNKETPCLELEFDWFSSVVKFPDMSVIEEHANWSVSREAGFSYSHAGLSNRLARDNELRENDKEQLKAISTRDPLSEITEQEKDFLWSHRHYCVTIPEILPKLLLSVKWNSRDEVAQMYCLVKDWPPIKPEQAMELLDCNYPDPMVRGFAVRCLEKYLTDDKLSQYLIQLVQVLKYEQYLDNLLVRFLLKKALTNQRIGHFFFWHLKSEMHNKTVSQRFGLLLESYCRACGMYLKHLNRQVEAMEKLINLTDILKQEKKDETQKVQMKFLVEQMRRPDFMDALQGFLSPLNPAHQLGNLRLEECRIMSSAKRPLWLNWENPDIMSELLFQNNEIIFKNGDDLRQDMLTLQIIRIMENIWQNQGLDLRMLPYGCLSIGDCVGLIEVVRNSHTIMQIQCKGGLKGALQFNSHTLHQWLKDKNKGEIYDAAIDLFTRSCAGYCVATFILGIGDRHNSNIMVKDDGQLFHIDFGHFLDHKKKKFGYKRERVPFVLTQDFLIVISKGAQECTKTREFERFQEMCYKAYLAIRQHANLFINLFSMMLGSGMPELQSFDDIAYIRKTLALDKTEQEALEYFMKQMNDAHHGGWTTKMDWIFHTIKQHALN
# Chain of p110α/p85 (P27986 whole entry partner): as the sequence (P27986 whole entry partner, species assumed) above
SMILES,melting point,IC50 (p110δ/p85) [nM],IC50 (p110α/p85) [nM]
"COc1cccc2c1nc(C(F)F)n2-c1nc(-c2ccc(N)nc2)nc(N2CCOCC2)n1 [Example 49, 5-[4-[2-(difluoromethyl)-4-methoxy-1H-benzimidazol-1-yl]-6-(4-morpholinyl)-1,3,5-triazin-2-yl]-2-pyridinamine]",259 to 261 °C,< 100,< 100
"COc1cccc2c1nc(C(F)F)n2-c1nc(N2CCOCC2)nc(-n2cccn2)n1 [Example 63, 2-(Difluoromethyl)-4-methoxy-1-[4-(4-morpholinyl)-6-(1H-pyrazol-1-yl)-1,3,5-triazin-2-yl]-1H-benzimidazole]",274 to 277 °C,< 100,< 100
"COc1cccc2c1nc(C(F)F)n2-c1nc(N2CCOCC2)c2ncn(-c3cncnc3)c2n1 [Example 60, 2-[2-(difluoromethyl)-4-methoxy-1H-benzimidazol-1-yl]-6-(4-morpholinyl)-9-(5-pyrimidinyl)-9H-purine]",248 to 251 °C,< 100,< 100
"COc1cc(N)cc2c1nc(C(F)F)n2-c1nc(-c2ccn(C)n2)nc(N2CCOCC2)n1 (as salt: methanesulfonate) [Example 65, 2-(Difluoromethyl)-4-methoxy-1-[4-(1-methyl-1H-pyrazol-3-yl)-6-(4-morpholinyl)-1,3,5-triazin-2-yl]-1H-benzimidazol-6-ylamine]",> 300 °C,–,–
"FC(F)c1nc2ccccc2n1-c1nc(-c2cccnc2)cc(N2CCOCC2)n1 [Example 51, 2-(difluoromethyl)-1-[4-(4-morpholinyl)-6-(3-pyridinyl)-2-pyrimidinyl]-1H-benzimidazole]",172 to 179 °C,100 to 1000,100 to 1000
"COc1cccc2c1nc(C(F)F)n2-c1nc(Nc2cnc(N(C)CCCN(C)C)nc2)nc(N2CCOCC2)n1 [Example 43, N^5-[4-[2-(difluoromethyl)-4-methoxy-1H-benzimidazol-1-yl]-6-(4-morpholinyl)-1,3,5-triazin-2-yl]-N^2-[3-(dimethylamino)propyl]-N^2-methyl-2,5-pyrimidinediamine]",97 to 99 °C,< 100,< 100
"COc1cccc2c1nc(C(F)F)n2-c1nc(N2CCOCC2)nc(-n2ccnc2)n1 [Example 67, 2-(Difluoromethyl)-1-[4-(1H-imidazol-1-yl)-6-(4-morpholinyl)-1,3,5-triazin-2-yl]-4-methoxy-1H-benzimidazole]",272 to 275 °C,–,–
"COc1cccc2c1nc(C(F)F)n2-c1nc(N2CCOCC2)nc2c1ncn2-c1cncnc1 [Example 62, 6-[2-(Difluoromethyl)-4-methoxy-1H-benzimidazol-1-yl]-2-(4-morpholinyl)-9-(5-pyrimidinyl)-9H-purine]",238 to 240 °C,–,–
"COc1cc(N)cc2c1nc(C(F)F)n2-c1nc(N2CCOCC2)nc(-n2cccn2)n1 (as salt: methanesulfonate) [Example 64, 2-(Difluoromethyl)-4-methoxy-1-[4-(4-morpholinyl)-6-(1H-pyrazol-1-yl)-1,3,5-triazin-2-yl]-1H-benzimidazol-6-ylamine]",> 300 °C,–,–
"COc1cccc2c1nc(C(F)F)n2-c1nc(N2CCOCC2)nc2c1ncn2-c1cccnc1 [Example 61, 6-[2-(Difluoromethyl)-4-methoxy-1H-benzimidazol-1-yl]-2-(4-morpholinyl)-9-(3-pyridinyl)-9H-purine]",206 to 209 °C,–,–
"COc1cccc2c1nc(C(F)F)n2-c1nc(-c2cn[nH]c2)nc(N2CCOCC2)n1 [Example 50, 2-(Difluoromethyl)-4-methoxy-1-[4-(4-morpholinyl)-6-(1H-pyrazol-4-yl)-1,3,5-triazin-2-yl]-1H-benzimidazole]",289 to 291 °C,–,–
"COc1cc(N)cc2c1nc(C(F)F)n2-c1nc(-c2cn[nH]c2)nc(N2CCOCC2)n1 [Example 66, 2-(Difluoromethyl)-4-methoxy-1-[4-(4-morpholinyl)-6-(1H-pyrazol-4-yl)-1,3,5-triazin-2-yl]-1H-benzimidazol-6-ylamine]",–,< 100,< 100
"COc1cccc2c1nc(C(F)F)n2-c1nc(N2CCOCC2)c2ncn(-c3cccnc3)c2n1 [Example 59, 2-[2-(difluoromethyl)-4-methoxy-1H-benzimidazol-1-yl]-6-(4-morpholinyl)-9-(3-pyridinyl)-9H-purine]",229 to 231 °C,–,–
COc1ccc(-c2cc(N3CCOCC3)nc(-n3c(C(F)F)nc4ccccc43)n2)cn1 [Example 53],224 to 226 °C,–,–

# Other lines, results leading:
melting point,IC50 (p110δ/p85) [nM],IC50 (p110α/p85) [nM],SMILES
–,< 100,< 100,"COc1cc(N)cc2c1nc(C(F)F)n2-c1nc(N2CCOCC2)nc(-n2cccn2)n1 [Example 64, 2-(Difluoromethyl)-4-methoxy-1-[4-(4-morpholinyl)-6-(1H-pyrazol-1-yl)-1,3,5-triazin-2-yl]-1H-benzimidazol-6-ylamine]"
163 to 166 °C,–,–,"FC(F)c1nc2ccccc2n1-c1nc(Nc2cncnc2)nc(N2CCOCC2)n1 (as salt: methanesulfonate) [Example 35, 4-[2-(difluoromethyl)-1H-benzimidazol-1-yl]-6-(4-morpholinyl)-N-(5-pyrimidinyl)-1,3,5-triazin-2-amine]"
246 °C (dec.),–,–,"COc1cc(N)cc2c1nc(C(F)F)n2-c1nc(-c2cccnc2)cc(N2CCOCC2)n1 (as salt: methanesulfonate) [Example 68, 2-(Difluoromethyl)-4-methoxy-1-[4-(4-morpholinyl)-6-(3-pyridinyl)-2-pyrimidinyl]-1H-benzimidazol-6-ylamine]"
> 300 °C,–,–,"COc1cc(N)cc2c1nc(C(F)F)n2-c1nc(-c2cn[nH]c2)nc(N2CCOCC2)n1 (as salt: methanesulfonate) [Example 66, 2-(Difluoromethyl)-4-methoxy-1-[4-(4-morpholinyl)-6-(1H-pyrazol-4-yl)-1,3,5-triazin-2-yl]-1H-benzimidazol-6-ylamine]"
–,< 100,< 100,"COc1cc(N)cc2c1nc(C(F)F)n2-c1nc(-c2ccn(C)n2)nc(N2CCOCC2)n1 [Example 65, 2-(Difluoromethyl)-4-methoxy-1-[4-(1-methyl-1H-pyrazol-3-yl)-6-(4-morpholinyl)-1,3,5-triazin-2-yl]-1H-benzimidazol-6-ylamine]"
–,< 100,< 100,"COc1cc(N)cc2c1nc(C(F)F)n2-c1nc(-c2cccnc2)cc(N2CCOCC2)n1 [Example 68, 2-(Difluoromethyl)-4-methoxy-1-[4-(4-morpholinyl)-6-(3-pyridinyl)-2-pyrimidinyl]-1H-benzimidazol-6-ylamine]"
281 to 285 °C,–,–,"Nc1ncc(-c2cc(N3CCOCC3)nc(-n3c(C(F)F)nc4ccccc43)n2)cn1 [Example 58, 2-[2-(difluoromethyl)-1H-benzimidazol-1-yl]-6-(4-morpholinyl)-4,5′-bipyrimidine-2′-amine]"
279 to 282 °C,–,–,"COc1cccc2c1nc(C(F)F)n2-c1nc(Nc2cccnc2)nc(N2CCOCC2)n1 (as salt: methanesulfonate) [Example 2, 4-[2-(difluoromethyl)-4-methoxy-1H-benzimidazol-1-yl]-6-(4-morpholinyl)-N-(3-pyridinyl)-1,3,5-triazin-2-amine]"
